Test results reported in PubChem BioAssay AID1963962 (Molecular Pharmacology Branch, DTP, NCI, 2024).

Test system: 967376-340-R-J2-PDC multicell spheroid viability
Assay: Anticancer human tumor 967376-340-R-J2-PDC patient-derived colon adenocarcinoma cell line growth inhibition [PI3K]
Conditions: for IC50: curve of first compound; for viability, T/C: stronger effect = lower value
Procedure, shortened: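 Complex 3D spheroids (cancer cells + endothelial HUVEC + mesenchymal stem cells); drug pairs of targeted agent x inavolisib/alpelisib/duvelisib/copanlisib; half-log series from ~Cmax, max 10 microM if Cmax unknown; endpoint viability.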

[1] = second compound 0.00316 µM, first compound 0.0316 µM
[2] = second compound 0.00316 µM, first compound 0.1 µM
[3] = second compound 0.00316 µM, first compound 0.316 µM
[4] = second compound 0.00316 µM, first compound 1 µM
[5] = second compound 0.00316 µM, first compound 3.16 µM
[6] = second compound 0.00316 µM, first compound 10 µM
[7] = second compound 0.01 µM, first compound 0.0316 µM
[8] = second compound 0.01 µM, first compound 0.1 µM
[9] = second compound 0.01 µM, first compound 0.316 µM
[10] = second compound 0.01 µM, first compound 1 µM
[11] = second compound 0.01 µM, first compound 3.16 µM
[12] = second compound 0.01 µM, first compound 10 µM
[13] = second compound 0.0316 µM, first compound 0.0316 µM
[14] = second compound 0.0316 µM, first compound 0.1 µM
[15] = second compound 0.0316 µM, first compound 0.316 µM
[16] = second compound 0.0316 µM, first compound 1 µM
[17] = second compound 0.0316 µM, first compound 3.16 µM
[18] = second compound 0.0316 µM, first compound 10 µM
[19] = second compound 0.1 µM, first compound 0.0316 µM
[20] = second compound 0.1 µM, first compound 0.1 µM
[21] = second compound 0.1 µM, first compound 0.316 µM
[22] = second compound 0.1 µM, first compound 1 µM
[23] = second compound 0.1 µM, first compound 3.16 µM
[24] = second compound 0.1 µM, first compound 10 µM
[25] = second compound 0.316 µM, first compound 0.0316 µM
[26] = second compound 0.316 µM, first compound 0.1 µM
[27] = second compound 0.316 µM, first compound 0.316 µM
[28] = second compound 0.316 µM, first compound 1 µM
[29] = second compound 0.316 µM, first compound 3.16 µM
[30] = second compound 0.316 µM, first compound 10 µM
[31] = second compound 1 µM, first compound 0.0316 µM
[32] = second compound 1 µM, first compound 0.1 µM
[33] = second compound 1 µM, first compound 0.316 µM
[34] = second compound 1 µM, first compound 1 µM
[35] = second compound 1 µM, first compound 3.16 µM
[36] = second compound 1 µM, first compound 10 µM
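Also: spheroids exposed to agents for 7 days before read-out.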
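For viability, T/C in this document: luminescence used as surrogate of cell viability.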

Structure (SMILES): CC(C)NCC(C(=O)N1CCN(c2ncnc3c2C(C)CC3O)CC1)c1ccc(Cl)cc1 (stereo not drawn) + COc1c(OCCCN2CCOCC2)ccc2c3n(c(=NC(=O)c4cnc(N)nc4)nc12)CCN3
- IC50 (second compound 0.00316 µM): > 10000 nM
- IC50 (second compound 0.01 µM): > 10000 nM
- IC50 (second compound 0.0316 µM): > 10000 nM
- IC50 (second compound 0.1 µM): > 10000 nM
- IC50 (second compound 0.316 µM): < 31.6 nM
- IC50 (second compound 1 µM): < 31.6 nM
- viability, T/C [1]: 79.8%
- viability, T/C [2]: 100%
- viability, T/C [3]: 78.2%
- viability, T/C [4]: 83.5%
- viability, T/C [5]: 73%
- viability, T/C [6]: 85.4%
- viability, T/C [7]: 90.9%
- viability, T/C [8]: 75.4%
- viability, T/C [9]: 102%
- viability, T/C [10]: 66.9%
- viability, T/C [11]: 76%
- viability, T/C [12]: 75.5%
- viability, T/C [13]: 78.8%
- viability, T/C [14]: 61.5%
- viability, T/C [15]: 62.5%
- viability, T/C [16]: 66.7%
- viability, T/C [17]: 82.9%
- viability, T/C [18]: 66.4%
- viability, T/C [19]: 53.7%
- viability, T/C [20]: 54.1%
- viability, T/C [21]: 74.5%
- viability, T/C [22]: 49%
- viability, T/C [23]: 57.9%
- viability, T/C [24]: 47.5%
- viability, T/C [25]: 38.4%
- viability, T/C [26]: 35.5%
- viability, T/C [27]: 57.1%
- viability, T/C [28]: 33.9%
- viability, T/C [29]: 52.5%
- viability, T/C [30]: 49.4%
- viability, T/C [31]: 48.4%
- viability, T/C [32]: 25.3%
- viability, T/C [33]: 37.2%
- viability, T/C [34]: 26.1%
- viability, T/C [35]: 47.6%
- viability, T/C [36]: 48.7%

Structure (SMILES): CCN1CCN(Cc2ccc(Nc3ncc(F)c(-c4cc(F)c5nc(C)n(C(C)C)c5c4)n3)nc2)CC1 + COc1c(OCCCN2CCOCC2)ccc2c3n(c(=NC(=O)c4cnc(N)nc4)nc12)CCN3
- IC50 (second compound 0.00316 µM): > 1000 nM
- IC50 (second compound 0.01 µM): > 1000 nM
- IC50 (second compound 0.0316 µM): 769 nM
- IC50 (second compound 0.1 µM): 25 nM
- IC50 (second compound 0.316 µM): < 3.16 nM
- IC50 (second compound 1 µM): < 3.16 nM
- viability, T/C (second compound 0.00316 µM, first compound 0.00316 µM): 85.1%
- viability, T/C (second compound 0.00316 µM, first compound 0.01 µM): 95.7%
- viability, T/C [1]: 87.6%
- viability, T/C [2]: 83.5%
- viability, T/C [3]: 79.7%
- viability, T/C [4]: 70.8%
- viability, T/C (second compound 0.01 µM, first compound 0.00316 µM): 85.3%
- viability, T/C (second compound 0.01 µM, first compound 0.01 µM): 77.9%
- viability, T/C [7]: 62.4%
- viability, T/C [8]: 71.1%
- viability, T/C [9]: 73.2%
- viability, T/C [10]: 60.6%
- viability, T/C (second compound 0.0316 µM, first compound 0.00316 µM): 68.6%
- viability, T/C (second compound 0.0316 µM, first compound 0.01 µM): 68.4%
- viability, T/C [13]: 71.4%
- viability, T/C [14]: 52.3%
- viability, T/C [15]: 63.6%
- viability, T/C [16]: 46.5%
- viability, T/C (second compound 0.1 µM, first compound 0.00316 µM): 66%
- viability, T/C (second compound 0.1 µM, first compound 0.01 µM): 57.6%
- viability, T/C [19]: 48.2%
- viability, T/C [20]: 40.1%
- viability, T/C [21]: 39.2%
- viability, T/C [22]: 34.9%
- viability, T/C (second compound 0.316 µM, first compound 0.00316 µM): 53.2%
- viability, T/C (second compound 0.316 µM, first compound 0.01 µM): 34.8%
- viability, T/C [25]: 43.4%
- viability, T/C [26]: 43.3%
- viability, T/C [27]: 42.4%
- viability, T/C [28]: 29.6%
- viability, T/C (second compound 1 µM, first compound 0.00316 µM): 42.2%
- viability, T/C (second compound 1 µM, first compound 0.01 µM): 35.5%
- viability, T/C [31]: 38.4%
- viability, T/C [32]: 22.8%
- viability, T/C [33]: 28.4%
- viability, T/C [34]: 30.3%

Structure (SMILES): Cn1ncc(Cl)c1-c1cc(C(=O)NC(CN)Cc2cccc(F)c2)sc1Cl (stereo not drawn) + COc1c(OCCCN2CCOCC2)ccc2c3n(c(=NC(=O)c4cnc(N)nc4)nc12)CCN3
- IC50 (second compound 0.00316 µM): > 10000 nM
- IC50 (second compound 0.01 µM): > 10000 nM
- IC50 (second compound 0.0316 µM): 4960 nM
- IC50 (second compound 0.1 µM): > 10000 nM
- IC50 (second compound 0.316 µM): 149 nM
- IC50 (second compound 1 µM): < 31.6 nM
- viability, T/C [1]: 93.7%
- viability, T/C [2]: 107%
- viability, T/C [3]: 73.8%
- viability, T/C [4]: 94.8%
- viability, T/C [5]: 84.8%
- viability, T/C [6]: 60.2%
- viability, T/C [7]: 88.5%
- viability, T/C [8]: 106%
- viability, T/C [9]: 76.2%
- viability, T/C [10]: 84.2%
- viability, T/C [11]: 67.3%
- viability, T/C [12]: 64.7%
- viability, T/C [13]: 84.1%
- viability, T/C [14]: 80.7%
- viability, T/C [15]: 70.5%
- viability, T/C [16]: 80.5%
- viability, T/C [17]: 57.8%
- viability, T/C [18]: 37.8%
- viability, T/C [19]: 76.4%
- viability, T/C [20]: 59.3%
- viability, T/C [21]: 77.9%
- viability, T/C [22]: 67.8%
- viability, T/C [23]: 52.8%
- viability, T/C [24]: 56.5%
- viability, T/C [25]: 59.1%
- viability, T/C [26]: 55.3%
- viability, T/C [27]: 45.1%
- viability, T/C [28]: 36%
- viability, T/C [29]: 52.5%
- viability, T/C [30]: 36.6%
- viability, T/C [31]: 40.4%
- viability, T/C [32]: 46.5%
- viability, T/C [33]: 30.9%
- viability, T/C [34]: 39.7%
- viability, T/C [35]: 31.4%
- viability, T/C [36]: 24.4%

Structure (SMILES): Cn1nccc1Nc1nccc(-c2ccn(C(CO)c3ccc(Cl)c(F)c3)c(=O)c2)n1 (stereo not drawn) + COc1c(OCCCN2CCOCC2)ccc2c3n(c(=NC(=O)c4cnc(N)nc4)nc12)CCN3
- IC50 (second compound 0.00316 µM): > 10000 nM
- IC50 (second compound 0.01 µM): > 10000 nM
- IC50 (second compound 0.0316 µM): > 10000 nM
- IC50 (second compound 0.1 µM): > 10000 nM
- IC50 (second compound 0.316 µM): 65.1 nM
- IC50 (second compound 1 µM): < 31.6 nM
- viability, T/C [1]: 117%
- viability, T/C [2]: 117%
- viability, T/C [3]: 86.2%
- viability, T/C [4]: 86.9%
- viability, T/C [5]: 137%
- viability, T/C [6]: 74.5%
- viability, T/C [7]: 96.2%
- viability, T/C [8]: 87.6%
- viability, T/C [9]: 96.4%
- viability, T/C [10]: 100%
- viability, T/C [11]: 97.5%
- viability, T/C [12]: 97.8%
- viability, T/C [13]: 73.5%
- viability, T/C [14]: 96.8%
- viability, T/C [15]: 72.9%
- viability, T/C [16]: 79.2%
- viability, T/C [17]: 83.1%
- viability, T/C [18]: 84.8%
- viability, T/C [19]: 61.1%
- viability, T/C [20]: 67%
- viability, T/C [21]: 55.6%
- viability, T/C [22]: 86.7%
- viability, T/C [23]: 58.9%
- viability, T/C [24]: 43.6%
- viability, T/C [25]: 58.5%
- viability, T/C [26]: 43%
- viability, T/C [27]: 34.8%
- viability, T/C [28]: 49.5%
- viability, T/C [29]: 57.5%
- viability, T/C [30]: 29.3%
- viability, T/C [31]: 44.4%
- viability, T/C [32]: 31%
- viability, T/C [33]: 40.7%
- viability, T/C [34]: 49.4%
- viability, T/C [35]: 42.9%
- viability, T/C [36]: 27.6%
